Experimental data taken from ChEMBL document CHEMBL1151615, “Trichothecenes, 1: The synthesis of 4-deoxyverrucarol from verrucarol and diacetoxyscirpenol” (J Nat Prod, 1984).
In brackets after ≈: the same amount, converted by molar mass.

Columns and labels:
[1] = Toxicity in mouse assessed as 50% inhibition of protein synthesis; format: organism-based; details: in vivo, read-out: Activity
Mus musculus = organism: Mus musculus; experiment: Skin toxicity in mouse; format: organism-based; details: in vivo

| SMILES | IC50 [1] [µg/mL] | MED (Mus musculus) |
| --- | --- | --- |
| CC(=O)OC[C@]12C[C@H](OC(=O)CC(C)C)C(C)=C[C@H]1O[C@@H]1[C@H](O)[C@@H](OC(C)=O)[C@@]2(C)[C@]12CO2 [T-2 TOXIN] | 0.005 (≈ 0.0107 µM) | 50.2 ng |
| CC1=C[C@H]2O[C@@H]3CC[C@](C)([C@@]2(CO)CC1)[C@]31CO1 [DEOXYVERRUCAROL] | 62.2 (≈ 248 µM) | >= 500 ng |
| CC1=C[C@H]2O[C@@H]3C[C@@H](O)[C@](C)([C@@]2(CO)CC1)[C@]31CO1 [VERRUCAROL] | 15.8 (≈ 59.3 µM) | >= 500 ng |
